Experimental data as given in ChEMBL document CHEMBL1147522, “1,2,3,4-tetrahydrocarbazoles as 5-HT6 serotonin receptor ligands” (Bioorg Med Chem Lett, 2004).

biological target: 5-hydroxytryptamine receptor 6 (Homo sapiens, UniProt P50406); test: Ability to displace [3H]LSD from human 5-hydroxytryptamine 6 receptor transiently expressed in COS-7 cells; assay type: cell-based
Sequence (P50406 whole entry): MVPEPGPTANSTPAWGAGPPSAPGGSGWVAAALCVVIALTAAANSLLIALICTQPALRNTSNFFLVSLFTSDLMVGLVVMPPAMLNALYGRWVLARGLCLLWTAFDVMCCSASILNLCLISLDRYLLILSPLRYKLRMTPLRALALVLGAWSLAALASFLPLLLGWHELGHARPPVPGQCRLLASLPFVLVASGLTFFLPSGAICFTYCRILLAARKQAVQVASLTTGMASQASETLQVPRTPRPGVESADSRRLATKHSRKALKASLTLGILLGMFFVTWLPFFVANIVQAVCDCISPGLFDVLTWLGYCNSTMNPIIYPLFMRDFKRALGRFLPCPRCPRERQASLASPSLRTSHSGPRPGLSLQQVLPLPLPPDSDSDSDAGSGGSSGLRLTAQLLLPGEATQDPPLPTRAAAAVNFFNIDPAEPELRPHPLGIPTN

| SMILES | Ki |
| --- | --- |
| COc1ccc2c(c1)c1c(n2S(=O)(=O)c2cccc3ccccc23)CCCC1CN(C)C (stereo unspecified) | 14 nM |
| Nc1ccc(S(=O)(=O)n2c3ccccc3c3ccccc32)cc1 | 49 nM |
| COc1ccc2c(c1)c1c(n2S(=O)(=O)c2ccc(N)cc2)CCCC1 | 29 nM |
| COc1ccc2c(c1)c1c(n2S(=O)(=O)c2ccc(C)cc2)CCCC1CN(C)C (stereo unspecified) | 9.4 nM |
| CN(C)CC1CCCc2c1c1ccccc1n2Cc1ccccc1 (stereo unspecified) | 64 nM |
| COc1ccc2c(c1)c1c(n2C(=O)c2ccc(N)cc2)CCCC1 | 6000 nM |
| COc1ccc2c(c1)c1c(n2Cc2ccc(N)cc2)CCCC1 | 6000 nM |
| COc1ccc2c(c1)c1c(n2S(=O)(=O)Cc2ccccc2)CCCC1CN(C)C (stereo unspecified) | 200 nM |
| COc1ccc2c(c1)c1c(n2S(=O)(=O)c2cccc3cccnc23)CCCC1CN(C)C (stereo unspecified) | 7.6 nM |
| COc1ccc2c(c1)c1c(n2S(=O)(=O)c2ccccc2)CCCC1CN(C)C (stereo unspecified) | 2.3 nM |
| COc1ccc2c(c1)c1c(n2S(=O)(=O)c2ccc(I)cc2)CCCC1CN(C)C (stereo unspecified) | 2.4 nM |
| COc1ccc(OC)c(S(=O)(=O)n2c3c(c4cc(OC)ccc42)C(CN(C)C)CCC3)c1 (stereo unspecified) | 0.3 nM |
| COc1ccc2c(c1)c1c(n2S(=O)(=O)c2ccc(N)cc2)CCCC1CN(C)C (stereo unspecified) | 2 nM |
| COc1ccc(S(=O)(=O)n2c3c(c4cc(OC)ccc42)C(CN(C)C)CCC3)cc1 (stereo unspecified) | 47 nM |
| COc1ccc2c(c1)c1c(n2S(=O)(=O)c2ccc3ccccc3c2)CCCC1CN(C)C (stereo unspecified) | 5.1 nM |
| COc1ccc2c(c1)c1c(n2S(=O)(=O)c2ccc(Cl)cc2)CCCC1CN(C)C (stereo unspecified) | 5 nM |
